Non-standard residues stand in square brackets, D forms with d. Residues, ends and D or L forms follow the SMILES beside them. *: point of attachment. hArg = N=C(N)NCCCC[C@H](N)C(=O)O; Agmatine = N=C(N)NCCCCN*; Nle = CCCC[C@H](N)C(=O)O

Test system in one data set: not listed separately
The experiment in a line: Chemical stability of the compound at 100 uM after 2 hrs in presence of MVEV NS2B/NS3 protease. Format: physicochemical.
With `N=C(N)N1CCC(CNC(=O)[C@H](CCCCN)NC(=O)[C@H](CCCCN)NC(=O)Cc2cccc(-c3ccccc3)c2)CC1`, the Stability entry is “Stable”.

Test system in another data set: not listed separately
The experiment in a line: Competitive inhibition of Murray Valley encephalitis virus NS2B/NS3 protease using Pyr-RTKR-AMC as substrate after 1 hr by Lineweaver-Burk plot analysis.
`N=C(N)N1CCC(CNC(=O)[C@H](CCCCN)NC(=O)[C@H](CCCCN)NC(=O)Cc2cccc(-c3ccccc3)c2)CC1`: the Ki came out at 2.5 µM.

A further data set has as its target Prothrombin (Homo sapiens, UniProt P00734). The experiment in a line: Inhibition of human thrombin after 1 hr by fluorescence assay.
In turn, `N=C(N)N1CCC(CNC(=O)[C@H](CCCCN)NC(=O)[C@H](CCCCN)NC(=O)Cc2cccc(-c3ccccc3)c2)CC1` registered a half-inhibitory concentration (IC50) of over 100 µM.

Test system in the next data set: not listed separately
The experiment in a line: Inhibition of Murray Valley encephalitis virus NS2B/NS3 protease using Pyr-RTKR-AMC as substrate after 1 hr by fluorescence assay.
Compound `CC(=O)N[C@@H](CCCCN)C(=O)N[C@@H](CCCCN)C(=O)NCCCCN` came in with an IC50 of over 100 µM.
With `CC(=O)N[C@@H](CCCCN)C(=O)N[C@@H](CCCCN)C(=O)NN`, the IC50 is over 100 µM.
For `N=C(N)NCCCCNC(=O)[C@H](CCCCN)NC(=O)[C@H](CCCCN)NC(=O)c1cccc2ccccc12`, the half-maximal inhibitory concentration (IC50) was found to be 28.3 µM.
On to `CCC(=O)N[C@@H](CCCCN)C(=O)N[C@@H](CCCCN)C(=O)NCCCCNC(=N)N`, for which the half-maximal inhibitory concentration (IC50) was 49.1 µM.
In the case of `CCCC(=O)N[C@@H](CCCCN)C(=O)N[C@@H](CCCCN)C(=O)NCCCCNC(=N)N`, the half-maximal inhibitory concentration (IC50) amounted to 50.9 µM.
The compound `CC(=O)N[C@@H](CCCCN)C(=O)N[C@@H](CCCCN)C(=O)NC/C=C/CNC(=N)N` gave an IC50 of 58.3 µM.
In the case of `N=C(N)N1CCC(CNC(=O)[C@H](CCCCN)NC(=O)[C@H](CCCCN)NC(=O)Cc2cccc(-c3ccccc3)c2)CC1`, the half-maximal inhibitory concentration (IC50) is 4.9 µM.
In turn, `N=C(N)NCCCCNC(=O)[C@H](CCCCN)NC(=O)[C@H](CCCCN)NC(=O)Cc1ccc(Cl)cc1` had a 50% inhibitory concentration (IC50) of 14.1 µM.
In turn, `CC(=O)N[C@@H](CCCCN)C(=O)N[C@@H](CCCCN)C(=O)NCCCNC(=N)N` yielded an IC50 of over 100 µM.
`N=C(N)NCCCCNC(=O)[C@H](CCCCN)NC(=O)[C@H](CCCCN)NC(=O)Cc1cccc(Cl)c1` registered a concentration for half-maximal inhibition (IC50) of 53.9 µM.
The same measure, in the same setting: in the case of `Cc1cccc(CC(=O)N[C@@H](CCCCN)C(=O)N[C@@H](CCCCN)C(=O)NCCCCNC(=N)N)c1` it was 15.7 µM; in that of `N=C(N)NCCCCNC(=O)[C@H](CCCCN)NC(=O)[C@@H](N)CCCCN`, over 100 µM.
`N=C(N)NCCCCNC(=O)[C@H](CCCCN)NC(=O)[C@H](CCCCN)NC(=O)Cc1ccccc1` registered a half-inhibitory concentration (IC50) of 16.3 µM.
For `CC(=O)N[C@@H](CCCCN)C(=O)N[C@@H](CCCCN)C(=O)NCCCCNC(N)=O`, the IC50 was over 100 µM.
Turning to `CC(=O)N[C@@H](CCCCN)C(=O)N[C@@H](CCCCN)C(=O)NCCCCCCN`, the IC50 is over 100 µM.
In turn, `CCCC[C@H](NC(C)=O)C(=O)N[C@@H](CCCCN)C(=O)NCCCCNC(=N)N` (Ac-[Nle]-Lys-Agmatine) showed a 50% inhibitory concentration (IC50) of 45.2 µM.
Same read-out and setting: in the case of `CC(C)CC(=O)N[C@@H](CCCCN)C(=O)N[C@@H](CCCCN)C(=O)NCCCCNC(=N)N` it was 69.3 µM.
`Cc1ccccc1CC(=O)N[C@@H](CCCCN)C(=O)N[C@@H](CCCCN)C(=O)NCCCCNC(=N)N` registered a 50% inhibitory concentration (IC50) of 60.5 µM.
In turn, `CCCCNC(=O)[C@H](CCCCN)NC(=O)[C@H](CCCCN)NC(C)=O` yielded a half-maximal inhibitory concentration (IC50) of over 100 µM.
For `N=C(N)NCCCCNC(=O)[C@H](CCCCN)NC(=O)[C@H](CCCCN)NC(=O)CCc1ccccc1`, the midpoint of inhibition, the IC50, lay at 30.7 µM.
Consider `CC(C)C(=O)N[C@@H](CCCCN)C(=O)N[C@@H](CCCCN)C(=O)NCCCCNC(=N)N`, for which the midpoint of inhibition, the IC50, lay at 81.7 µM.
Regarding `CC(=O)N[C@@H](CCCCN)C(=O)N[C@@H](CCCCN)C(=O)NCCCCCNC(=N)N`, inhibition was half-maximal at 75.7 µM (IC50).
With `CCCC[C@H](NC(=O)[C@H](CCCCN)NC(C)=O)C(=O)NCCCCNC(=N)N` (Ac-Lys-[Nle]-Agmatine), the IC50 was over 100 µM.
Regarding `N=C(N)NCCCCNC(=O)[C@H](CCCCN)NC(=O)[C@H](CCCCN)NC(=O)c1ccc2ccccc2c1`, it took 24 µM to reach half-maximal inhibition (IC50).
On the same count and under the same terms, in the case of `N=C(N)NCCCCNC(=O)[C@H](CCCCN)NC(=O)[C@H](CCCCN)NC(=O)Cc1cccc(-c2ccccc2)c1` it was 9.1 µM; in that of `CC(=O)N[C@@H](CCCCN)C(=O)N[C@@H](CCCCN)C(=O)NC/C=C\CNC(=N)N`, over 100 µM.
The compound `N=C(N)NCCCCNC(=O)[C@H](CCCCN)NC(=O)[C@H](CCCCN)NC(=O)Cc1ccccc1Cl` returned an IC50 of 54 µM.
For `CC(=O)N[C@@H](CCCCN)C(=O)N[C@@H](CCCCNC(=N)N)C(=O)NCCCCNC(=N)N` (Ac-Lys-[hArg]-Agmatine), the IC50 came out at 79.2 µM.
As for `CC(=O)N[C@@H](CCCCN)C(=O)N[C@@H](CCCCN)C(=O)NCCCCCN`, the 50% inhibitory concentration (IC50) is over 100 µM.
Consider `CC(=O)N[C@@H](CCCCN)C(=O)N[C@@H](CCCCN)C(=O)N[C@H]1CC[C@@H](NC(=N)N)CC1`, for which the IC50 was over 100 µM.
On the same count and under the same terms, in the case of `Cc1ccc(CC(=O)N[C@@H](CCCCN)C(=O)N[C@@H](CCCCN)C(=O)NCCCCNC(=N)N)cc1` it was 15.2 µM; in that of `CC(=O)N[C@@H](CCCCN)C(=O)N[C@@H](CCCCN)C(=O)NCC1CCN(C(=N)N)CC1`, 9.2 µM.
The compound `N=C(N)NCCCCNC(=O)[C@H](CCCCN)NC(=O)[C@H](CCCCN)NC(=O)Cc1ccc(-c2ccccc2)cc1` had an IC50 of 18.4 µM.
For `CC(=O)N[C@@H](CCCCNC(=N)N)C(=O)N[C@@H](CCCCN)C(=O)NCCCCNC(=N)N` (Ac-[hArg]-Lys-Agmatine), the IC50 is 31.4 µM.
For `CC(C)(C)C(=O)N[C@@H](CCCCN)C(=O)N[C@@H](CCCCN)C(=O)NCCCCNC(=N)N`, the IC50 is over 100 µM.
Take `N=C(N)NCCCCNC(=O)[C@H](CCCCN)NC(=O)[C@H](CCCCN)NC(=O)c1ccccc1`: the concentration for half-maximal inhibition (IC50) was 32.3 µM.
On the same count and under the same terms, for `CC(=O)N[C@@H](CCCCN)C(=O)N[C@@H](CCCCN)C(=O)NCC#CCNC(=N)N` the value was 12.7 µM.
In turn, `CC(=O)N[C@@H](CCCCN)C(=O)N[C@@H](CCCCN)C(=O)NCCCCNC(=N)N` had a concentration for half-maximal inhibition (IC50) of 16.8 µM.

Usually Ki stands for a dissociation constant, usually derived from enzyme kinetics or from competition with a known ligand. A higher Ki goes with lower affinity. In general, IC50 refers to the midpoint of a concentration-inhibition curve. A higher IC50 goes with a need for much substance.
